ChEMBL document CHEMBL4270583, “Synthesis and biological evaluation of dihydroquinoline carboxamide derivatives as anti-tubercular agents” (Eur J Med Chem, 2018)
Converted amounts (≈) assume the structure as drawn.

Legend:
[1] = system: Mycobacterium tuberculosis; experiment: Antitubercular activity against Mycobacterium tuberculosis H37Rv after 1 week by microplate alamar blue assay; format: functional; conditions: 168 h
[2] = Cytotoxicity against mouse RAW264.7 cells assessed as growth inhibition at 25 ug/ml after 48 hrs by MTT assay relative to control; format: cell-based; conditions: read-out: GI
[3] = Cytotoxicity against mouse RAW264.7 cells assessed as growth inhibition after 48 hrs by MTT assay; format: cell-based

Structure (SMILES): O=C(Nc1ccc2c(c1)OCCO2)c1c(-c2ccccc2)c2ccccc2[nH]c1=O
- MIC [1]: 25 µg/mL (≈ 62.7 µM)

Structure (SMILES): Cc1ccc(NC(=O)c2c(-c3ccccc3)c3cc(Cl)ccc3n(Cc3cc(F)cc(F)c3)c2=O)c(C)c1
- MIC [1]: 12.5 µg/mL (≈ 23.6 µM)

Structure (SMILES): O=C(NCCc1ccc(O)cc1)c1c(-c2ccccc2)c2cc(Cl)ccc2[nH]c1=O
- MIC [1]: 25 µg/mL (≈ 59.7 µM)

Structure (SMILES): O=C(Nc1ccc(C(F)(F)F)cc1)c1c(-c2ccccc2)c2ccccc2n(Cc2ccccc2)c1=O
- MIC [1]: 25 µg/mL (≈ 50.2 µM)

Structure (SMILES): COC(=O)C(Cc1ccc(O)cc1)NC(=O)c1c(-c2ccccc2)c2cc(Cl)ccc2[nH]c1=O (stereo not given)
- MIC [1]: 12.5 µg/mL (≈ 26.2 µM)

Structure (SMILES): O=C(Nc1ccc(F)cc1)c1c(-c2ccccc2)c2ccccc2[nH]c1=O
- MIC [1]: 25 µg/mL (≈ 69.8 µM)

Structure (SMILES): Cc1cccc(Cn2c(=O)c(C(=O)Nc3ccc(OC(F)(F)F)cc3)c(-c3ccccc3)c3cc(Cl)ccc32)c1
- MIC [1]: > 25 µg/mL

Structure (SMILES): CS(=O)(=O)c1ccc(NC(=O)c2c(-c3ccccc3)c3ccccc3n(Cc3cccc(Cl)c3)c2=O)cc1
- MIC [1]: 12.5 µg/mL (≈ 23 µM)

Structure (SMILES): O=C(NC12CC3CC(CC(C3)C1)C2)c1c(-c2ccccc2)c2ccccc2[nH]c1=O
- inhibition at 48 h, 25 ug/ml [2]: 16.2%
- MIC [1]: 3.12 µg/mL (≈ 7.84 µM)
- GI50 at 48 h [3]: 87.6 µg/mL (≈ 220 µM)

Structure (SMILES): O=C(NCCCn1ccnc1)c1c(-c2ccccc2)c2cc(Cl)ccc2[nH]c1=O
- MIC [1]: 25 µg/mL (≈ 61.4 µM)

Structure (SMILES): O=C(Nc1ccccc1F)c1c(-c2ccccc2)c2cc(Cl)ccc2n(Cc2ccc(F)cc2)c1=O
- MIC [1]: > 25 µg/mL

Structure (SMILES): Cc1cccc(Cn2c(=O)c(C(=O)Nc3ccc(Cl)cc3)c(-c3ccccc3)c3cc(Cl)ccc32)c1
- MIC [1]: 25 µg/mL (≈ 48.7 µM)

Structure (SMILES): NNC(=O)c1ccncc1 [ISONIAZID]
- MIC [1]: 0.1 µg/mL (≈ 0.729 µM)

Structure (SMILES): COC(=O)C(Cc1c[nH]c2ccccc12)NC(=O)c1c(-c2ccccc2)c2cc(Cl)ccc2[nH]c1=O (stereo not given)
- inhibition at 48 h, 25 ug/ml [2]: 21.5%
- MIC [1]: 6.25 µg/mL (≈ 12.5 µM)
- GI50 at 48 h [3]: 104 µg/mL (≈ 209 µM)

Structure (SMILES): O=C(NCCc1c[nH]c2ccccc12)c1c(-c2ccccc2)c2ccccc2[nH]c1=O
- MIC [1]: 12.5 µg/mL (≈ 30.7 µM)

Structure (SMILES): O=C(Nc1ccc(CO)cc1)c1c(-c2ccccc2)c2cc(Cl)ccc2[nH]c1=O
- MIC [1]: > 25 µg/mL

Structure (SMILES): O=C(Nc1cccc(F)c1)c1c(-c2ccccc2)c2cc(Cl)ccc2n(Cc2ccc(F)cc2)c1=O
- MIC [1]: > 25 µg/mL

Structure (SMILES): O=C(NCCN1CCCCC1)c1c(-c2ccccc2)c2cc(Cl)ccc2[nH]c1=O
- MIC [1]: 25 µg/mL (≈ 61 µM)

Structure (SMILES): O=C(Nc1ccc(N2CCOCC2)cc1)c1c(-c2ccccc2)c2cc(Cl)ccc2[nH]c1=O
- inhibition at 48 h, 25 ug/ml [2]: 18.6%
- MIC [1]: 6.25 µg/mL (≈ 13.6 µM)
- GI50 at 48 h [3]: 96.4 µg/mL (≈ 210 µM)

Structure (SMILES): O=C(Nc1ccc(Cl)cc1)c1c(-c2ccccc2)c2cc(Cl)ccc2n(Cc2cccc(F)c2)c1=O
- inhibition at 48 h, 25 ug/ml [2]: 24.7%
- MIC [1]: 0.39 µg/mL (≈ 0.754 µM)
- GI50 at 48 h [3]: 86.8 µg/mL (≈ 168 µM)

Structure (SMILES): Cc1cc(C)c(NC(=O)c2c(-c3ccccc3)c3cc(Cl)ccc3n(Cc3cccc(F)c3)c2=O)c(C)c1
- inhibition at 48 h, 25 ug/ml [2]: 22.4%
- MIC [1]: 0.78 µg/mL (≈ 1.49 µM)
- GI50 at 48 h [3]: 93.5 µg/mL (≈ 178 µM)

Structure (SMILES): Cc1cccc(Cn2c(=O)c(C(=O)Nc3ccc(F)cc3)c(-c3ccccc3)c3cc(Cl)ccc32)c1
- MIC [1]: > 25 µg/mL

Structure (SMILES): CSc1ccc(NC(=O)c2c(-c3ccccc3)c3cc(Cl)ccc3n(Cc3cccc(C)c3)c2=O)cc1
- MIC [1]: 12.5 µg/mL (≈ 23.8 µM)

Structure (SMILES): O=C(Nc1ccc(F)cc1)c1c(-c2ccccc2)c2ccccc2n(Cc2ccccc2)c1=O
- MIC [1]: > 25 µg/mL

Structure (SMILES): CO[C@H]1/C=C/O[C@@]2(C)Oc3c(C)c(O)c4c(O)c(c(/C=N/N5CCN(C)CC5)c(O)c4c3C2=O)NC(=O)/C(C)=C\C=C\[C@H](C)[C@H](O)[C@@H](C)[C@@H](O)[C@@H](C)[C@H](OC(C)=O)[C@@H]1C [RIFAMPIN]
- MIC [1]: 0.2 µg/mL (≈ 0.243 µM)

Structure (SMILES): CSc1ccc(NC(=O)c2c(-c3ccccc3)c3ccccc3n(Cc3cccc(Cl)c3)c2=O)cc1
- MIC [1]: > 25 µg/mL

Structure (SMILES): O=C(Nc1ccc(OC(F)(F)F)cc1)c1c(-c2ccccc2)c2ccccc2n(Cc2ccccc2)c1=O
- MIC [1]: > 25 µg/mL

Structure (SMILES): O=C(NCCc1ccccc1)c1c(-c2ccccc2)c2cc(Cl)ccc2[nH]c1=O
- MIC [1]: 25 µg/mL (≈ 62.1 µM)

Structure (SMILES): Cc1cccc(Cn2c(=O)c(C(=O)Nc3ccc(Br)cc3)c(-c3ccccc3)c3cc(Cl)ccc32)c1
- MIC [1]: > 25 µg/mL

Structure (SMILES): O=C(NCCN1CCOCC1)c1c(-c2ccccc2)c2cc(Cl)ccc2[nH]c1=O
- MIC [1]: 25 µg/mL (≈ 60.7 µM)

Structure (SMILES): CC[C@@H](CO)NCCN[C@@H](CC)CO [ETHAMBUTOL]
- MIC [1]: 1.56 µg/mL (≈ 7.64 µM)

Structure (SMILES): O=C(Nc1ccc(Br)cc1)c1c(-c2ccccc2)c2ccccc2n(Cc2ccccc2)c1=O
- inhibition at 48 h, 25 ug/ml [2]: 14.6%
- MIC [1]: 6.25 µg/mL (≈ 12.3 µM)
- GI50 at 48 h [3]: 113 µg/mL (≈ 222 µM)

Structure (SMILES): Cc1cccc(Cn2c(=O)c(C(=O)Nc3ccc(C(F)(F)F)cc3)c(-c3ccccc3)c3cc(Cl)ccc32)c1
- MIC [1]: > 25 µg/mL
